According to BigSolDB 2.1:

OC[C@H]1O[C@H](O[C@]2(CCl)O[C@H](CCl)[C@@H](O)[C@@H]2O)[C@H](O)[C@@H](O)[C@H]1Cl
solubility (mole fraction)
Settings	in ethanol	in isopropanol	in methanol	in water
283.15 K	0.00843	–	0.0307	0.0107
288.15 K	0.00976	0.00389	0.0315	0.0115
293.15 K	0.012	0.0044	0.0328	0.0123
298.15 K	0.0143	0.00533	0.0343	0.0146
303.15 K	0.0158	0.00624	0.0362	0.0164
308.15 K	0.0184	0.00789	0.0383	0.0182
313.15 K	0.0202	0.00854	0.0415	0.0195
318.15 K	0.0228	0.011	0.0449	0.0223
323.15 K	0.0248	0.0128	0.0485	0.0259
328.15 K	0.0281	0.015	0.0524	0.0285
333.15 K	0.0322	0.0171	0.0596	0.0314
